Laboratory results as given in BindingDB's records for doi:10.7270/Q2C53J9J (University of Pittsburgh, 2010).

These molecules were tested against T1, Glucose-6-phosphate 1-dehydrogenase (Leuconostoc mesenteroides, UniProt P11411) (assay: Leuconostoc G6PDH inhibition potency, SAR follow-up, counter-screen for TbHK1 inhibitor project, biochemical, analogue series, IC50 (AID 2579)).
T1 sequence (P11411 whole entry): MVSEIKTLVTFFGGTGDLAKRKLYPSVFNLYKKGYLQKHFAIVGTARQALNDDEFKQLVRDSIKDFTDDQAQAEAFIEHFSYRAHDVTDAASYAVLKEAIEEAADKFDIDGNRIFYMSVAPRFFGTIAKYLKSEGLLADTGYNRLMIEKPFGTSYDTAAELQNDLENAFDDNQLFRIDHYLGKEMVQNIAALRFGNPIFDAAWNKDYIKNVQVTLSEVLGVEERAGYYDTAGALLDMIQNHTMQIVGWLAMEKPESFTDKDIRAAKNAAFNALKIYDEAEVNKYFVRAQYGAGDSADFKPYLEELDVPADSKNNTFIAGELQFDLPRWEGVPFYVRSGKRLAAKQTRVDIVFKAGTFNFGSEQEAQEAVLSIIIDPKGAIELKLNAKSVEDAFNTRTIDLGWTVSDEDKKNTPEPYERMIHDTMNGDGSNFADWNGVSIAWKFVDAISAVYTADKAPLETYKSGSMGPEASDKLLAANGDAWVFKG
In the case of `O=C(Cn1sc2ccccc2c1=O)Nc1ccc(I)cc1` [N-(4-iodophenyl)-2-(3-oxo-1,2-benzothiazol-2-yl)acetamide], the IC50 is reported as over 25 µM. In the case of `O=c1c2c(Br)cccc2sn1-c1ccccc1` [4-bromanyl-2-phenyl-1,2-benzothiazol-3-one], the IC50 is reported as over 25 µM. Work on `CC(=O)Nc1ccc2c(=O)n(-c3ccccc3)sc2c1` [KUC104218N] yielded an IC50 of over 25 µM. Work on `O=C(Cn1sc2ccccc2c1=O)N1CCCCC1` yielded an IC50 of over 25 µM. Work on `COc1ccc(C(=O)Nc2cc(F)cc(F)c2O)cc1` [N-(3,5-difluoro-2-hydroxyphenyl)-4-methoxybenzamide] yielded an IC50 of over 25 µM. Molecule `O=c1c2ccc([N+](=O)[O-])cc2sn1-c1ccccc1` [6-nitro-2-phenyl-1,2-benzothiazol-3-one] has an IC50 of over 25 µM. `CN(C)S(=O)(=O)c1cccc(-n2sc3ccccc3c2=O)c1` [3-(3-keto-1,2-benzothiazol-2-yl)-N,N-dimethyl-benzenesulfonamide] was tested, and the IC50 was over 25 µM. `O=C(O)c1ccc(Cl)cc1NC(=O)c1coc2ccccc12` [2-[[3-benzofuranyl(oxo)methyl]amino]-4-chlorobenzoic acid] gave an IC50 of over 25 µM. `COc1ccc2c(=O)n(-c3ccccc3)sc2c1` [KUC105410N] showed an IC50 of over 25 µM. `CCc1ccc(C(=O)Nc2cc(Br)ccc2C(=O)O)cc1` [4-bromanyl-2-[(4-ethylphenyl)carbonylamino]benzoic acid] showed an IC50 of over 25 µM. Molecule `COc1ccc2c(c1)CN(c1cc(Cl)ccc1C(=O)O)C2=O` [4-chloro-2-(6-methoxy-3-oxo-1H-isoindol-2-yl)benzoic acid] has an IC50 of over 25 µM. Molecule `O=C(Nc1cc(Cl)ccc1C(=O)O)c1ccc2c(c1)OCO2` [KUC106004N] has an IC50 of over 25 µM. `O=C(Nc1cc(Cl)ccc1C(=O)O)c1ccncc1` [4-chloro-2-[[oxo(pyridin-4-yl)methyl]amino]benzoic acid] showed an IC50 of over 25 µM. For `Cn1sc(=O)c2ccccc21` [KUC103851N], the IC50 was over 25 µM. `COc1ccc(C(=O)NC(CC(=O)O)c2ccccc2)cc1` (stereo not given) [sodium;3-[(4-methoxybenzoyl)amino]-3-phenylpropanoate] was tested, and the IC50 was over 25 µM. Work on `O=C(Cn1sc2ccccc2c1=O)Nc1cccc(I)c1` [KUC104222N] yielded an IC50 of over 25 µM. With `COc1ccc(NC(=O)c2ccccc2C(=O)O)cc1` [KSC-6-244] the IC50 was over 25 µM. `O=c1c2ccccc2sn1-c1ccccc1F` gave an IC50 of over 25 µM. `COc1ccc(C(=O)NC(CC(=O)O)c2ccc(Cl)cc2)cc1` (stereo not given) [3-(4-chlorophenyl)-3-[(4-methoxyphenyl)carbonylamino]propanoic acid] was tested, and the IC50 was over 25 µM. `COc1ccc(C(=O)Nc2cc(C)ccc2C(=O)O)cc1` [2-[(4-methoxyphenyl)carbonylamino]-4-methyl-benzoic acid] gave an IC50 of over 25 µM. For `Cc1ccc(C(=O)Nc2cc(Cl)ccc2C(=O)O)cc1C` [KUC106495N], the IC50 was over 25 µM. Work on `O=c1c2cc([N+](=O)[O-])ccc2sn1-c1ccccc1` [KUC103868N] yielded an IC50 of over 25 µM. `COc1ccc(C(=O)Nc2cc(I)ccc2C(=O)O)cc1` [4-iodanyl-2-[(4-methoxyphenyl)carbonylamino]benzoic acid] gave an IC50 of over 25 µM. `CCCCCCCC(=O)Nc1cc(Cl)ccc1C(=O)O` [KUC106002N] was tested, and the IC50 was over 25 µM. For `Cc1cccc(C(=O)Nc2cc(Cl)ccc2C(=O)O)c1` [4-chloro-2-[[(3-methylphenyl)-oxomethyl]amino]benzoic acid], the IC50 was over 25 µM. With `O=C(Cn1sc2ccccc2c1=O)Nc1ccccc1C(F)(F)F` [KUC105610N] the IC50 was over 25 µM. In the case of `O=C(Nc1cc(Cl)ccc1C(=O)O)c1ccc(Cc2ccccc2)cc1` [4-chloranyl-2-[[4-(phenylmethyl)phenyl]carbonylamino]benzoic acid], the IC50 is reported as over 25 µM. With `O=C(Nc1cc(Cl)ccc1C(=O)O)c1ccoc1` [4-chloranyl-2-(furan-3-ylcarbonylamino)benzoic acid] the IC50 was over 25 µM. Molecule `O=c1c2cccnc2sn1-c1ccccc1` [2-(Phenyl)-isothiazolo[5,4-b]pyridin-3(2H)-one] has an IC50 of over 25 µM. `COc1ccc(NC(=O)c2ccc(Cl)cc2C(=O)O)cc1` [KUC105925N] showed an IC50 of over 25 µM. For `COc1ccc(C(=O)Nc2cc(Cl)ccc2-c2nnn[nH]2)cc1` [KUC105991N], the IC50 was over 25 µM. Molecule `N#Cc1ccc2sn(-c3ccccc3)c(=O)c2c1` [KUC104224N] has an IC50 of over 25 µM. `O=C(Nc1cc(Cl)ccc1C(=O)O)c1ccc(-c2cccs2)cc1` [KUC106464N] was tested, and the IC50 was over 25 µM. In the case of `CCCCCCC(=O)Nc1cc(Cl)ccc1C(=O)O` [4-chloro-2-(1-oxoheptylamino)benzoic acid], the IC50 is reported as over 25 µM. In the case of `CN(C)c1cccc(NC(=O)Cn2sc3ccccc3c2=O)c1` [KSC-09-148-9], the IC50 is reported as over 25 µM. `O=C(O)c1ccccc1NC(=O)c1ccccc1C(=O)O` showed an IC50 of over 25 µM. In the case of `COc1ccc(NC(=O)c2ccccc2SCc2ccccc2)cc1` [KUC103881N], the IC50 is reported as over 25 µM. `COc1ccc(C(=O)Nc2cc(Cl)ccc2C(=O)O)cn1` [4-chloranyl-2-[(6-methoxypyridin-3-yl)carbonylamino]benzoic acid] gave an IC50 of over 25 µM. For `COc1ccc(C(=O)Nc2cc(Br)ccc2C(=O)O)cc1` [4-bromo-2-[[(4-methoxyphenyl)-oxomethyl]amino]benzoic acid], the IC50 was over 25 µM. Work on `O=c1c2cc(Br)ccc2[s+]([O-])n1-c1ccccc1` (stereo not given) yielded an IC50 of over 25 µM. With `O=C(Cn1sc2ccccc2c1=O)N1CCOCC1` [KUC105406N] the IC50 was over 25 µM. With `COc1cccc(-n2sc3ccccc3c2=O)c1` [2-(3-methoxyphenyl)-1,2-benzothiazol-3-one] the IC50 was over 25 µM. Work on `COc1ccc(CC(=O)Nc2cc(Cl)ccc2C(=O)O)cc1` [KUC105993N] yielded an IC50 of over 25 µM. Molecule `COC(=O)c1cc(Cl)ccc1NC(=O)c1ccc(OC)cc1` [methyl 5-chloranyl-2-[(4-methoxyphenyl)carbonylamino]benzoate] has an IC50 of over 25 µM. `O=C(Cn1sc2ccccc2c1=O)Nc1ccc(Cl)cc1` [N-(4-chlorophenyl)-2-(3-oxidanylidene-1,2-benzothiazol-2-yl)ethanamide] showed an IC50 of over 25 µM. `CCCCCC(=O)Nc1cc(Cl)ccc1C(=O)O` [4-chloro-2-(1-oxohexylamino)benzoic acid] gave an IC50 of over 25 µM. `CCCc1ccc(C(=O)Nc2cc(Cl)ccc2C(=O)O)cc1` gave an IC50 of over 25 µM. `O=c1c2ccccc2sn1-c1ccc(Cl)cc1` [2-(4-chlorophenyl)-1,2-benzothiazol-3-one] showed an IC50 of over 25 µM. `COc1ccccc1NC(=O)Cn1sc2ccccc2c1=O` [N-(2-methoxyphenyl)-2-(3-oxidanylidene-1,2-benzothiazol-2-yl)ethanamide] was tested, and the IC50 was over 25 µM. With `COc1ccc(C(=O)Nc2ccccc2C(=O)O)cc1` [KUC106458N] the IC50 was over 25 µM.
